The values below come from US20230102554A1 (GB002, INC., priority 2019, published 2023).

In assay [1] the target is T1, Human PDGFRβ, cytoplasmic domain (GST-PDGFRβ) (Homo sapiens, UniProt P09619).
T1 construct: made in house
The assay can be described thus: Human PDGFRβ biochemical inhibition assay (off-chip Mobility Shift Assay). In outline: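 GST-tagged cytoplasmic domain (aa 557-1106) from baculovirus was incubated 1 h at room temperature with compound, CSKtide, ATP at Km and Mg²⁺ in HEPES buffer, pH 7.5. Phosphorylated and unphosphorylated peptide were separated by off-chip mobility shift, and the product ratio P/(P+S) gave percent inhibition.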

Assay [2] deals with T2, Human PDGFRα, cytoplasmic domain (GST-PDGFRα) (Homo sapiens, UniProt P16234).
T2 construct: made in house
T2 sequence (P16234 550-1089 T674I): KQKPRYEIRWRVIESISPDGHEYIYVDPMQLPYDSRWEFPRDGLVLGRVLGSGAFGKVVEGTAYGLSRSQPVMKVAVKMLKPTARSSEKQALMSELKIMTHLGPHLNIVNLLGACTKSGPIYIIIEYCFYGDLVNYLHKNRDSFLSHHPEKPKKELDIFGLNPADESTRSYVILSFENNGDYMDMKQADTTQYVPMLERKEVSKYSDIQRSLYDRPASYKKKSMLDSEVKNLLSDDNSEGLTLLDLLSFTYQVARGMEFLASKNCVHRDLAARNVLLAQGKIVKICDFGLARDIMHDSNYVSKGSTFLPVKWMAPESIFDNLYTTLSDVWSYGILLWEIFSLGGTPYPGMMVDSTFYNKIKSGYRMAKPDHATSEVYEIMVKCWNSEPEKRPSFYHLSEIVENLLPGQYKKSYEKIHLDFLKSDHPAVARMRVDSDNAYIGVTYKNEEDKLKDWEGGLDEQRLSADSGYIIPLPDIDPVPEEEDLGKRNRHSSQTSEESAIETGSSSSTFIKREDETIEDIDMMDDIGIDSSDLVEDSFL
The assay can be described thus: Human PDGFRα biochemical inhibition assay (off-chip Mobility Shift Assay).

As usually defined, the IC50 is the concentration needed to halve the response being measured.

Bounds are passed on as bounds.

T1 sequence (P09619 with tags, fused parts or gaps): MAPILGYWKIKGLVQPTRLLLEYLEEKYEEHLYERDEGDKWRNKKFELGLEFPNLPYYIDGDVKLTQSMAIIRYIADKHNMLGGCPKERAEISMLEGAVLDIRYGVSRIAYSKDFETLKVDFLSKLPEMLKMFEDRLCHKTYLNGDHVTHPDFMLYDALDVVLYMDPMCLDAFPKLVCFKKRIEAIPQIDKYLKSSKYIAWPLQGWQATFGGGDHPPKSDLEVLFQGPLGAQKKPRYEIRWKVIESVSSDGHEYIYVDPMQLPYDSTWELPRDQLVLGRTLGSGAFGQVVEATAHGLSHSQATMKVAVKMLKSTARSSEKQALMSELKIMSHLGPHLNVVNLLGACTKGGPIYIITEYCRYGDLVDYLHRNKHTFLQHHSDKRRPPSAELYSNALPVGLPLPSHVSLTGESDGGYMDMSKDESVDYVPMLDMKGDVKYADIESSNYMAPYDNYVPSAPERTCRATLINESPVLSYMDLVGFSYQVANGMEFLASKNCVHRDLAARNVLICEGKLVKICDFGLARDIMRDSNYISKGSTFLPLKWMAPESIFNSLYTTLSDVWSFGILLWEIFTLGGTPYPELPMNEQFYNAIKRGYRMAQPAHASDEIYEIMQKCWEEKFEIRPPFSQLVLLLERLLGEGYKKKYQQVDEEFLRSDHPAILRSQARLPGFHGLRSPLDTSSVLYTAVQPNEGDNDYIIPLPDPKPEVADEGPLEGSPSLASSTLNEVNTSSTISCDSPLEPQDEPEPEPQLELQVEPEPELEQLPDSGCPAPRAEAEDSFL

Regarding `COc1cc(C(=O)Nc2cccc([C@H](C)Nc3cnc4cnn(C)c4n3)c2)cnc1C` [Compound 252, (S)-5-methoxy-6-methyl-N-(3-(1-((1-methyl-1H-pyrazolo[3,4-b]pyrazin-6-yl)amino)ethyl)phenyl)nicotinamide], the 50% inhibitory concentration (IC50) in assay [1] and in assay [2] was under 300 nM each time.
For the molecule `Cc1cc(C(=O)Nc2cccc([C@H](C)Nc3cnc4cnn(C)c4n3)c2)cnc1O` [Compound 253, (S)-6-hydroxy-5-methyl-N-(3-(1-((1-methyl-1H-pyrazolo[3,4-b]pyrazin-6-yl)amino)ethyl)phenyl)nicotinamide], the IC50 in assay [1] was at least 1000 nM; in assay [2], under 300 nM.
Take `CCCOC(=O)c1ccc(C(=O)Nc2cccc([C@H](C)Nc3cnc4cnn(C)c4n3)c2)cc1C` [Compound 254, propyl (S)-2-methyl-4-((3-(1-((1-methyl-1H-pyrazolo[3,4-b]pyrazin-6-yl)amino)ethyl)phenyl)carbamoyl)benzoate]: the IC50 in assay [1] and in assay [2] was under 300 nM in each case.
In the case of `CCOC(=O)c1ccc(C(=O)Nc2cccc([C@H](C)Nc3cnc4cnn(C)c4n3)c2)cc1C` [Compound 255, ethyl (S)-2-methyl-4-((3-(1-((1-methyl-1H-pyrazolo[3,4-b]pyrazin-6-yl)amino)ethyl)phenyl)carbamoyl)benzoate], the IC50 in assay [1] and in assay [2] was under 300 nM each time.
As to `CC(=O)OC(C)OC(=O)c1ccc(C(=O)Nc2cccc([C@H](C)Nc3cnc4cnn(C)c4n3)c2)cc1C` (stereo partly drawn) [Compound 256, 1-acetoxyethyl 2-methyl-4-((3-((S)-1-((1-methyl-1H-pyrazolo[3,4-b]pyrazin-6-yl)amino)ethyl)phenyl)carbamoyl) benzoate], the IC50 in assay [1] and in assay [2] was under 300 nM throughout.
On to `Cc1cc(C(=O)Nc2cccc([C@H](C)Nc3cnc4cnn(C)c4n3)c2)ccc1C(=O)OCCO` [Compound 257, 2-hydroxyethyl (S)-2-methyl-4-((3-(1-((1-methyl-1H-pyrazolo[3,4-b]pyrazin-6-yl)amino)ethyl)phenyl)carbamoyl) benzoate], for which the IC50 in assay [1] and in assay [2] was under 300 nM throughout.
Take `Cc1cc(C(=O)Nc2cccc([C@H](C)Nc3cnc4cnn(C)c4n3)c2)ccc1C(=O)OC(C)C` [Compound 258, isopropyl (S)-2-methyl-4-((3-(1-((1-methyl-1H-pyrazolo[3,4-b]pyrazin-6-yl)amino)ethyl)phenyl)carbamoyl)benzoate]: the half-maximal inhibitory concentration (IC50) in assay [1] and in assay [2] was under 300 nM each time.
Regarding `Cc1cc(C(=O)Nc2cccc([C@H](C)Nc3cnc4cnn(C)c4n3)c2)cnc1N1CC2(COC2)C1` [Compound 259, (S)-5-methyl-N-(3-(1-((1-methyl-1H-pyrazolo[3,4-b]pyrazin-6-yl)amino)ethyl)phenyl)-6-(2-oxa-6-azaspiro[3.3]heptan-6-yl) nicotinamide], the half-inhibitory concentration (IC50) in assay [1] and in assay [2] was under 300 nM throughout.
Turning to `Cc1cc(C(=O)Nc2cccc([C@H](C)Nc3cnc4cnn(C)c4n3)c2)cnc1N1CCSCC1` [Compound 260, (S)-5-methyl-N-(3-(1-((1-methyl-1H-pyrazolo[3,4-b]pyrazin-6-yl)amino)ethyl)phenyl)-6-thiomorpholinonicotinamide], the 50% inhibitory concentration (IC50) in assay [1] and in assay [2] was under 300 nM in each case.
For `COC(=O)c1ccc(C(=O)Nc2cccc([C@H](C)Nc3cnc4cnn(C)c4n3)c2)cc1OC` [Compound 261, methyl (S)-2-methoxy-4-((3-(1-((1-methyl-1H-pyrazolo[3,4-b]pyrazin-6-yl)amino)ethyl)phenyl)carbamoyl)benzoate], the IC50 in assay [1] and in assay [2] was under 300 nM in each case.
Take `CC(C)COc1ncc(C(=O)Nc2cccc([C@H](C)Nc3cnc4cnn(C)c4n3)c2)cc1Cl` [Compound 262, (S)-5-chloro-6-isobutoxy-N-(3-(1-((1-methyl-1H-pyrazolo[3,4-b]pyrazin-6-yl)amino)ethyl)phenyl)nicotinamide]: the half-maximal inhibitory concentration (IC50) in assay [1] and in assay [2] was under 300 nM throughout.
With `Cc1cc(C(=O)Nc2cccc([C@H](C)Nc3cnc4cnn(C)c4n3)c2)ccc1C(=O)OCC(C)C` [Compound 263, isobutyl (S)-2-methyl-4-((3-(1-((1-methyl-1H-pyrazolo[3,4-b]pyrazin-6-yl)amino)ethyl)phenyl)carbamoyl)benzoate], the figures for the IC50 in assay [1] and in assay [2] were 300 to 1000 nM and under 300 nM, respectively.
As to `Cc1cc(C(=O)Nc2cccc([C@H](C)Nc3cnc4cnn(C)c4n3)c2)ccc1C(=O)OCCN1CCOCC1` [Compound 264, 2-morpholinoethyl (S)-2-methyl-4-((3-(1-((1-methyl-1H-pyrazolo[3,4-b]pyrazin-6-yl)amino)ethyl)phenyl)carbamoyl) benzoate], the half-inhibitory concentration (IC50) in assay [1] and in assay [2] was under 300 nM each time.
Turning to `CCn1cnc2ncc(C(=O)Nc3cccc([C@H](C)Nc4cnc5cnn(C)c5n4)c3)cc21` [Compound 265, (S)-1-ethyl-N-(3-(1-((1-methyl-1H-pyrazolo[3,4-b]pyrazin-6-yl)amino)ethyl)phenyl)-1H-imidazo[4,5-b]pyridine-6-carboxamide], the IC50 in assay [1] and in assay [2] was under 300 nM each time.
With `Cc1cc(C(=O)Nc2cccc([C@H](C)Nc3cnc4cnn(C)c4n3)c2)ccc1C(=O)OCCN` [Compound 266, 2-aminoethyl (S)-2-methyl-4-((3-(1-((1-methyl-1H-pyrazolo[3,4-b]pyrazin-6-yl)amino)ethyl)phenyl)carbamoyl) benzoate], the IC50 in assay [1] and in assay [2] was under 300 nM in each case.
Turning to `Cc1cc(C(=O)Nc2cccc([C@H](C)Nc3cnc4cnn(C)c4n3)c2)ccc1C(=O)OCc1oc(=O)oc1C` [Compound 267, (5-methyl-2-oxo-1,3-dioxol-4-yl)methyl (S)-2-methyl-4-((3-(1-((1-methyl-1H-pyrazolo[3,4-b]pyrazin-6-yl)amino)ethyl)phenyl)carbamoyl)benzoate], the IC50 in assay [1] and in assay [2] was under 300 nM in each case.
Regarding `Cc1cc(C(=O)Nc2cccc([C@H](C)Nc3cnc4cnn(C)c4n3)c2)ccc1C(=O)OCCN1CCCC1` [Compound 268, 2-(pyrrolidin-1-yl)ethyl (S)-2-methyl-4-((3-(1-((1-methyl-1H-pyrazolo[3,4-b]pyrazin-6-yl)amino)ethyl)phenyl)carbamoyl) benzoate], the IC50 in assay [1] and in assay [2] was under 300 nM in each case.
Regarding `CSc1ccc(C(=O)Nc2cccc([C@H](C)Nc3cnc4cnn(C)c4n3)c2)cc1SC` [Compound 269, (S)-N-(3-(1-((1-methyl-1H-pyrazolo[3,4-b]pyrazin-6-yl)amino)ethyl)phenyl)-3,4-bis(methylthio)benzamide], the IC50 in assay [1] and in assay [2] was under 300 nM throughout.
Take `Cc1cncc(C(=O)Nc2cccc([C@H](C)Nc3cnc4cnn(-c5ccccc5)c4n3)c2)c1` [Compound 271, (S)-5-methyl-N-(3-(1-((1-phenyl-1H-pyrazolo[3,4-b]pyrazin-6-yl)amino)ethyl)phenyl)nicotinamide]: the IC50 in assay [1] and in assay [2] was under 300 nM throughout.
Take `Cc1cncc(C(=O)Nc2cccc([C@H](C)Nc3cnc4cnn(-c5ccccn5)c4n3)c2)c1` [Compound 272, (S)-5-methyl-N-(3-(1-((1-(pyridin-2-yl)-1H-pyrazolo[3,4-b]pyrazin-6-yl)amino)ethyl)phenyl)nicotinamide]: the half-maximal inhibitory concentration (IC50) in assay [1] and in assay [2] was under 300 nM throughout.
Consider `Cc1cncc(C(=O)Nc2cccc([C@H](C)Nc3cnc4cnn(-c5cccnc5)c4n3)c2)c1` [Compound 273, (S)-5-methyl-N-(3-(1-((1-(pyridin-3-yl)-1H-pyrazolo[3,4-b]pyrazin-6-yl)amino)ethyl)phenyl)nicotinamide], for which the IC50 in assay [1] and in assay [2] was under 300 nM throughout.
Consider `Cc1cncc(C(=O)Nc2cccc([C@H](C)Nc3cnc4cn(C)nc4n3)c2)c1` [Compound 274, (S)-5-methyl-N-(3-(1-((2-methyl-2H-pyrazolo[3,4-b]pyrazin-6-yl)amino)ethyl)phenyl)nicotinamide], for which the concentration for half-maximal inhibition (IC50) is at least 1000 nM in assay [1] and under 300 nM in assay [2].
Regarding `Cc1cncc(C(=O)Nc2cccc([C@H](C)Nc3cnc4cn(CC5CC5)nc4n3)c2)c1` [Compound 275, (S)-N-(3-(1-((2-(cyclopropylmethyl)-2H-pyrazolo[3,4-b]pyrazin-6-yl)amino)ethyl)phenyl)-5-methylnicotinamide], the concentration for half-maximal inhibition (IC50) in assay [1] and in assay [2] was under 300 nM in each case.
Turning to `Cc1cncc(C(=O)Nc2cccc([C@H](C)Nc3cnc4cn(CC(C)C)nc4n3)c2)c1` [Compound 276, (S)-N-(3-(1-((2-isobutyl-2H-pyrazolo[3,4-b]pyrazin-6-yl)amino)ethyl)phenyl)-5-methylnicotinamide], the IC50 in assay [1] and in assay [2] was 300 to 1000 nM throughout.
Turning to `Cc1cncc(C(=O)Nc2cccc([C@H](C)Nc3cnc4cn(CCF)nc4n3)c2)c1` [Compound 277, (S)-N-(3-(1-((2-(2-fluoroethyl)-2H-pyrazolo[3,4-b]pyrazin-6-yl)amino)ethyl)phenyl)-5-methylnicotinamide], the IC50 in assay [1] and in assay [2] was under 300 nM each time.
For `Cc1cncc(C(=O)Nc2cccc([C@H](C)Nc3cnc4cn(CCN5CCOCC5)nc4n3)c2)c1` [Compound 278, (S)-5-methyl-N-(3-(1-((2-(2-morpholinoethyl)-2H-pyrazolo[3,4-b]pyrazin-6-yl)amino)ethyl)phenyl) nicotinamide], the IC50 in assay [1] was at least 1000 nM; in assay [2] it was 300 to 1000 nM.
As for `CCn1cc2ncc(N[C@@H](C)c3cccc(NC(=O)c4cncc(OC)c4)c3)nc2n1` [Compound 279, (S)-N-(3-(1-((2-ethyl-2H-pyrazolo[3,4-b]pyrazin-6-yl)amino)ethyl)phenyl)-5-methoxynicotinamide], the IC50 in assay [1] was 300 to 1000 nM; in assay [2] it was under 300 nM.
